Test results as given in patent US8546348B2, “Upregulation of opioid receptors for management” (The Board of Regents of the University of Texas System, priority 2003, dated 2013).
Several values for one entry are separate records, joined by “and”; a condition that tells them apart may be missing. Equal values may be shown once. Read-outs that look alike come from different tables or passages of the source.

Tests used:
[1] = tested on: high-threshold voltage-dependent Ca^2+ channels in DRG neurons; assay: Perforated patch recording of DAMGO block of Ba2+ currents in cultured DRG neurons; format: cell-based, rat; conditions: for IC50: read-out: apparent affinity for DAMGO inhibition (IC50)
Method: Cells were superfused (2 ml/min) at 23-24° C. with external solution containing 130 mM tetraethylammonium (“TEA”) chloride, 5 mM CsCl, 1.5 mM BaCl2, 1 mM MgCl2, 10 mM Hepes, and 10 mM glucose (pH 7.2, adjusted with TEA-OH; osmolarity, 300 mosM). Patch electrodes (resistance, 2.2-3.5 MΩ) were filled with internal solution containing 100 mM CsMeSO3, 40 mM CsCl, 10 mM Hepes, and 300 μg/ml amphotericin B (pH=7.3 adjusted with CsOH, 320 mosM). The currents were filtered at 2-5 kHz and sampled at 100 μs per point. [D-Ala^2,N-MePhe^4,Gly^5-ol]enkephalin (“DAMGO”) was pressure delivered to the recorded cells through a drug applicator (8).
All data were expressed as mean±SEM. Paw withdrawal latencies obtained from different rats were averaged. Changes before and after morphine treatment within one rat group were analyzed with one-way ANOVA followed by post hoc Newman-Keuls analysis. Antinociceptive responses were expressed as maximum possible effect (“MPE”) by using the relation MPE=(postdrug PWL−baseline PWL)/(cutoff PWL−baseline PWL)×100. Dose-response curves were plotted as MPE vs. dose and fitted with the logistic equation. The doses estimated to produce 50% MPE, A50, and 95% confidence intervals were determined. The dose-response curves for DAMGO in current measurements were fitted with the Hill equation, i.e., response=(max−min)×[IC50/(IC50^n+dose^n)]+min, where max and min are maximal and minimal responses, IC50 is the dose for 50% of the block, and n is the Hill coefficient. The 95% confidence band analysis was used to evaluate the significance of the change in the IC50 and maximal block. To assess the significance of changes between two means, the Student's t test was used. A p<0.05 was considered significant.
It is well established that μ-opioids inhibit high-threshold voltage-dependent Ca^2+ currents in DRG neurons. […] Seven days after the infection, perforated patch whole-cell recordings were performed on the cells. External Ca^2+ was replaced by Ba^2+ to avoid rapid rundown of current responses.

[2] = tested on: spared nerve injury (SNI) rats; assay: Mechanical allodynia (von Frey) in SNI rats treated with rAAV-δOR, intrathecal deltorphin or morphine; format: in vivo, rat
Method: Similar method as described before was used to induce inflammation To produce the nerve-injury in the rat paw, spared nerve injury (SNI) in rats was generated by transecting the sural and common peroneal sciatic nerves in the left rat leg while leaving the tibal nerve intact. To induce inflammation in the trigeminal nerve innervated areas, rats were lightly anesthetized with pentobarbital. CFA (10-50 μl) was injected into the rat temporomandibular joint (TMJ) 3-4 weeks after infection of rAAV-dOR. Behavioral experiments were performed 5-14 days after the CFA injection. To induce spare nerve injury in the trigeminal nerve, the infraorbital nerve branch of the maxillary nerve was ligated and the ophthalmic and mandibular nerves were left intact.
δ-opioid receptor expression was enhanced in dorsal root ganglia (DRGs) by injecting rAAV-dOR into the ganglion or into the sciatic nerve or by injecting dOR-FLAG DNA intrathecally. The δ-OR receptor expression was enhanced in the trigeminal ganglon by injecting rAAV-dOR into the trigeminal ganglion or into the maxillary nerve.
Three to four weeks later, the effects of morphine or other analgesic drugs on mechanical allodynia in SNI rats were determined behaviorally. Rat hindpaw withdrawal (PW) thresholds in response to stimulation of Von Frey filaments were measured. Each test consisted of applications of a series of von Frey filaments (ranging from 0.4 to 15.0 g) to the lateral plantar surface of the tested paw until it withdrew or for a maximum of 60 s. To avoid injury during tests, the cutoff strength of the von Frey filament was 15 g. The up and down method described by Chaplan et al. (12) was used to determine the PW threshold. Mechanical threshold or the maximum possible effect (MPE), i.e., ((test−min)/(max−min)]×100%, was used to calculate morphine mechanical analgesic effects.

[3] = tested on: injured rats (sciatic nerve ligation); conditions: Kabli and Cahill; cited from earlier work
[4] = tested on: rats (thermal nociceptive responses); assay: Paw withdrawal latency to radiant heat, s.c. morphine, rats with rAAV injected into L4-L5 ganglia; format: in vivo, rat; conditions: 4 mg/kg morphine, non-CFA rats
[5] = tested on: rats (inflammatory pain, CFA); assay: Morphine antinociception (MPE, radiant heat) in CFA rats after DRG or sciatic nerve injection of rAAV; format: in vivo, rat; conditions: s.c. morphine, rAAV injected into DRGs
[6] = tested on: rats (thermal hyperalgesia, CFA); assay: Paw withdrawal latency to radiant heat, intrathecal morphine, rats with rAAV injected into the sciatic nerve; conditions: rat, in vivo
[7] = tested on: spared nerve injury (SNI) rats; assay: Mechanical allodynia (von Frey) in spared nerve injury rats, intrathecal morphine, rAAV-μOR; format: in vivo, rat; conditions: intrathecal 1-10 μg, SNI rats without rAAV

| SMILES | IC50 ([1]; rAAV-EGFP cells) | percentage of cells responded to DAMGO inhibition ([1]; rAAV-EGFP-treated cells) | maximal block of Ba2+ currents ([1]; rAAV-μOR cells, Hill fit) | IC50 ([1]; rAAV-μOR cells) | percentage of cells responded to DAMGO inhibition ([1]; rAAV-μOR-treated DRG neurons) | percentage of cells responded to DAMGO inhibition ([1]; untreated cells) | IC50 ([1]; untreated cells) | reduction of allodynic responses ([2]; SNI rats) | reduction of allodynic responses ([2]; SNI rats, listed as Deltorphin) | reduction of allodynic responses ([2]; rAAV-δOR treated SNI rats) | time for which the drug is effective in reducing allodynic responses [3] | time at which antinociceptive effects reached a maximum [4] | time in which antinociceptive effects dissipated [4] | time at which MPEs peaked [5] | time within which MPEs dissipated [5] | time after which the effect dissipated [6] | time at which MPE peaked [6] | relief of mechanical allodynia [7] |
| --- | --- | --- | --- | --- | --- | --- | --- | --- | --- | --- | --- | --- | --- | --- | --- | --- | --- | --- |
| C[C@@H](NC(=O)[C@@H](N)Cc1ccc(O)cc1)C(=O)NCC(=O)N(C)[C@@H](Cc1ccccc1)C(=O)NCCO [DAMGO, [D-Ala^2,N-MePhe^4,Gly^5-ol]enkephalin] | 530 ± 30 nM | 54.5% | 31.63% and 31.63±0.03% | 170 ± 60 nM | 89.2% | 57.1% | 640 ± 190 nM | – | – | – | – | – | – | – | – | – | – | – |
| CC(C)[C@H](NC(=O)[C@H](CCC(=O)O)NC(=O)[C@H](Cc1ccccc1)NC(=O)[C@@H](C)NC(=O)[C@@H](N)Cc1ccc(O)cc1)C(=O)N[C@H](C(=O)NCC(=O)O)C(C)C [deltorphin] | – | – | – | – | – | – | – | rather ineffective | ineffective | became effective | 21 days | – | – | – | – | – | – | – |
| CN1CC[C@]23c4c5ccc(O)c4O[C@H]2[C@@H](O)C=C[C@H]3[C@H]1C5 [morphine] | – | – | – | – | – | – | – | – | – | – | 14 days | 30 to 40 min | 80 to 90 min | 30 to 40 min | 100 to 120 min and 100 min | 50 min | 15 to 20 min | not effective |
